Experimental data taken from publication PMC12005229, “Final results from the phase Ia/Ib study of the novel bromodomain and extra-terminal domain inhibitor, BI 894999, in patients with advanced solid tumors or diffuse large B-cell lymphoma” (ESMO Open, 2025).
Read-outs that look alike come from different tables or passages of the source.

Assays:
[1] = test system: colorectal cancer (CRC) cell lines; parameters: method as in earlier work; details: cited from earlier work
[2] = test system: patients with DLBCL; experiment: phase Ia DLBCL extension: tumor response (RECIL 2017); format: in vivo, human
Protocol: PFS was measured for the period from the start of treatment to the occurrence of progressive disease or death. Tumor response was measured using RECIST 1.1[28] for patients with solid tumors and RECIL 2017[29] for those with DLBCL. OS was assessed in patients with NUT carcinoma; the OS status was to continue until 12 months after the end of the study.
Supplementary Table 1. […]
• Objective response (OR), defined as complete response (CR) or partial response (PR) with tumor assessment during treatment period for each schedule according to Response Evaluation Criteria in Solid Tumors (RECIST) version 1.1. For DLBCL patients, a minor response according to Response Evaluation Criteria in Lymphoma (RECIL) 2017 was not part of an OR […]
• Progression-free survival (PFS), defined from date of start of BI 894999 to the date of objective disease progression or death, whichever was earlier, with tumor assessment every 2 cycles (every 6 weeks for Schedule B if no delays or as close as possible to the end of the second of the 2 cycles of treatment if there was a delay) during the treatment period […]
AUC0–24, area under the plasma concentration–time curve over the 24-hour dosing interval; AUCτ, ss , area under the plasma concentration–time curve over the dosing interval τ at steady state; AE, adverse event; Cmax, maximal exposure; Cma x , s s , maximal exposure at steady state; DLBCL, diffuse large B- cell lymphoma; DLT, dose-limiting toxicity; mCRPC, metastatic castration-resistant prostate cancer; NUT, nuclear protein in […]

[3] = review of non-Good Laboratory Practice preclinical assays for cardiac toxicity; details: review prompted by elevated troponin T
Text: Some patients experienced elevated troponin T levels, leading to a review of troponin T levels, electrocardiogram data, clinical summaries, and non-Good Laboratory Practice preclinical assays. […] This also corresponded with a lack of cardiotoxicity reported in preclinical studies in animals[17] and this was not a toxicity previously reported with BET inhibitors.[35] It was concluded that the cause of troponin T elevation may be multifactorial, but not clinically significant to preclude further clinical development.[17]

[4] = plasma pharmacokinetics, LC-MS/MS, noncompartmental analysis; format: in vivo, human; details: for Tmax / AUC(0-t) / Cmax: human, plasma, oral
Protocol: Samples were collected for PK analysis in cycle 1: 5 min pre-dose, 30 min, 1, 2, 3, 4, 6, and 8 h after drug administration on day 1 (schedules B and C) and on day 14 (for schedule B) or day 21 (for schedule C); 5 min pre-dose on days 8 and 12 (for schedule B) and at time of the visit on day 8 (168 h) for schedule C; 5 min pre-dose on day 18 (at time of the visit) for schedule B; and on day 22 (504 and 512 h) and day 29 (at time of the visit) for schedule C. For schedule B, a few additional samples were also taken in cycle 2: 5 min pre-dose, 2, 4, and 8 h on day 1, and 5 min pre-dose on day 2.
BI 894999 plasma concentrations were determined using a validated assay based on liquid chromatography coupled with tandem mass spectrometry. PK parameters were determined by noncompartmental analysis using the Phoenix WinNonlin software (Phoenix 6.3, Certara USA Inc., Princeton, NJ).

Q: For `CNc1nc(-c2nc3ccc(N4CCN(C)CC4)cc3n2Cc2ccccc2)cn2c(C)nnc12` [BI 894999], which “activity against colorectal cancer (CRC) cell lines” value [1] is on record?
A: demonstrated activity

Q: And the patients not assessable ([2]; phase Ia DLBCL n = 18)?
A: 27.8%

Q: And the “patients with partial response (BOR)” value ([2]; phase Ia DLBCL n = 18)?
A: 5.6%

Q: What about the “patients with progressive disease” value ([2]; phase Ia DLBCL n = 18) of the same compound?
A: 50.0%

Q: What about the “patients with stable disease” value ([2]; phase Ia DLBCL n = 18) of the same compound?
A: 16.7%

Q: And the “duration of response (DOR) of confirmed PR” value ([2]; phase Ia DLBCL, one patient)?
A: 49 days

Q: What about the “Best overall response: complete response” value ([2]; phase Ia DLBCL, schedule B) of the same compound?
A: 0 (0.0) n (%)

Q: And the “Best overall response: not evaluable” value ([2]; phase Ia DLBCL, schedule B)?
A: 5 (35.7) n (%)

Q: What about the “Best overall response: partial response” value ([2]; phase Ia DLBCL, schedule B) of the same compound?
A: 1 (7.1) n (%)

Q: What about the “Best overall response: progressive disease” value ([2]; phase Ia DLBCL, schedule B) of the same compound?
A: 6 (42.9) n (%)

Q: What about the “Best overall response: stable disease” value ([2]; phase Ia DLBCL, schedule B) of the same compound?
A: 2 (14.3) n (%)

Q: What about the Disease control ([2]; phase Ia DLBCL, schedule B) of the same compound?
A: 3 (21.4) n (%)

Q: What about the Objective response ([2]; phase Ia DLBCL, schedule B) of the same compound?
A: 1 (7.1) n (%)

Q: What about the “Best overall response: complete response” value ([2]; phase Ia DLBCL, schedule C) of the same compound?
A: 0 (0.0) n (%)

Q: And the “Best overall response: not evaluable” value ([2]; phase Ia DLBCL, schedule C)?
A: 0 (0.0) n (%)

Q: And the “Best overall response: partial response” value ([2]; phase Ia DLBCL, schedule C)?
A: 0 (0.0) n (%)

Q: And the “Best overall response: progressive disease” value ([2]; phase Ia DLBCL, schedule C)?
A: 3 (75.0) n (%)

Q: What about the “Best overall response: stable disease” value ([2]; phase Ia DLBCL, schedule C) of the same compound?
A: 1 (25.0) n (%)

Q: What about the Disease control ([2]; phase Ia DLBCL, schedule C) of the same compound?
A: 1 (25.0) n (%)

Q: What about the “Best overall response: complete response” value ([2]; phase Ia DLBCL, total) of the same compound?
A: 0 (0.0) n (%)

Q: And the “Best overall response: not evaluable” value ([2]; phase Ia DLBCL, total)?
A: 5 (27.8) n (%)

Q: And the “Best overall response: partial response” value ([2]; phase Ia DLBCL, total)?
A: 1 (5.6) n (%)

Q: And the “Best overall response: progressive disease” value ([2]; phase Ia DLBCL, total)?
A: 9 (50.0) n (%)

Q: And the “Best overall response: stable disease” value ([2]; phase Ia DLBCL, total)?
A: 3 (16.7) n (%)

Q: And the Disease control ([2]; phase Ia DLBCL, total)?
A: 4 (22.2) n (%)

Q: And the Objective response ([2]; phase Ia DLBCL, total)?
A: 1 (5.6) n (%)

Q: What about the “preclinical evidence of cardiac toxicity” value [3] of the same compound?
A: no preclinical evidence of potential cardiac toxicity

Q: And the Tmax ([4]; 1.5 mg, phase Ia DLBCL, schedule B 1.5 mg, day 1, read-out: tmax median)?
A: 2.02 h

Q: And the Tmax ([4]; 1.5 mg, phase Ia DLBCL, schedule B 1.5 mg, day 14, read-out: tmax,ss median)?
A: 2.56 h

Q: And the Tmax ([4]; 2 mg, phase Ia DLBCL, schedule B 2.0 mg, day 1, read-out: tmax median)?
A: 2.01 h

Q: What about the AUC(0-t) ([4]; 2 mg, phase Ia DLBCL, schedule B 2.0 mg, day 14, read-out: AUC0–24,ss gMean (gCV, %)) of the same compound?
A: 0.12 µM·h

Q: And the Tmax ([4]; 2 mg, phase Ia DLBCL, schedule B 2.0 mg, day 14, read-out: tmax,ss median)?
A: 2.12 h

Q: What about the Tmax ([4]; 2 mg, phase Ib solid tumors, schedule B 2.0 mg, day 1, read-out: tmax median) of the same compound?
A: 2 h

Q: What about the Tmax ([4]; 2 mg, phase Ib solid tumors, schedule B 2.0 mg, day 14, read-out: tmax,ss median) of the same compound?
A: 2 h

Q: And the AUC(0-t) ([4]; 2.5 mg, phase Ia DLBCL, schedule B 2.5 mg, day 1, read-out: AUC0–24 gMean (gCV, %))?
A: 0.0533 µM·h

Q: What about the Tmax ([4]; 2.5 mg, phase Ia DLBCL, schedule B 2.5 mg, day 1, read-out: tmax median) of the same compound?
A: 2.04 h

Q: And the Tmax ([4]; 2.5 mg, phase Ib, schedule B 2.5 mg including NUT carcinoma, day 1, read-out: tmax median)?
A: 2.01 h

Q: And the AUC(0-t) ([4]; 2.5 mg, phase Ib, schedule B 2.5 mg including NUT carcinoma, day 14, read-out: AUC0–24,ss gMean (gCV, %))?
A: 0.125 µM·h

Q: What about the Tmax ([4]; 2.5 mg, phase Ib, schedule B 2.5 mg including NUT carcinoma, day 14, read-out: tmax,ss median) of the same compound?
A: 2 h

Q: And the AUC(0-t) ([4]; 4 mg, phase Ia DLBCL, schedule C 4.0/2.0 mg, day 1 after loading dose, read-out: AUC0–24 gMean (gCV, %))?
A: 0.138 µM·h

Q: What about the Tmax ([4]; 4 mg, phase Ia DLBCL, schedule C 4.0/2.0 mg, day 1 after loading dose, read-out: tmax median) of the same compound?
A: 2 h

Q: What about the AUC(0-t) ([4]; 6 mg, phase Ib, schedule C 6.0/3.0 mg NUT carcinoma only, day 1 after loading dose, read-out: AUC0–24 gMean (gCV, %)) of the same compound?
A: 0.214 µM·h

Q: And the Tmax ([4]; 6 mg, phase Ib, schedule C 6.0/3.0 mg NUT carcinoma only, day 1 after loading dose, read-out: tmax median)?
A: 2 h

Q: And the AUC(0-t) ([4]; phase Ib, schedule C 6.0/3.0 mg NUT carcinoma only, day 21, read-out: AUC0–24,ss gMean (gCV, %))?
A: 0.149 µM·h

Q: And the Tmax ([4]; phase Ib, schedule C 6.0/3.0 mg NUT carcinoma only, day 21, read-out: tmax,ss median)?
A: 2.05 h

Q: What about the Tmax ([4]; single dose day 1 and once-daily multiple doses days 14 or 21, read-out: median time to maximum plasma concentration (tmax)) of the same compound?
A: ~2 h

Q: What about the Cmax ([4]; phase Ia DLBCL, schedule B 2.0 mg, day 14, read-out: Cmax,ss gMean (gCV, %)) of the same compound?
A: 7.67 nM

Q: And the Cmax ([4]; phase Ia DLBCL, schedule B 2.5 mg, day 1, read-out: Cmax gMean (gCV, %))?
A: 4.75 nM

Q: And the “dose dependence of plasma concentrations” value ([4]; within a dosing schedule and indication)?
A: increased with increasing dose
